What was measured:
IL-1β mRNA [1] = experiment: Northern analysis of IL-1β mRNA induction in peripheral blood monocytes; details: 2 μM LPG pretreatment 2 h, N=2
Excerpt: Human peripheral blood cells from the New York Blood Center (New York, N.Y.) obtained by Hypaque-Ficoll density centrifugation and adherence to plastic are 99% monocytes. […] Human monocytic cells THP-1 (TIB-202) and plasmid containing glyceraldehyde-3-phosphate dehydrogenase [GAPDH] cDNA (cat. #57090) were obtained from American Type Culture Collection (ATCC), Rockville, MdD. […] RPMI-1640, fetal bovine serum, L-glutamine, and penicillin-streptomycin (Gibco, Grand Island, N.Y.); β-mercaptoethanol, phorbol 12-myristate 13-acetate (PMA) and LPS from Escherichia coli serotype 055: B5 were purchased from the Sigma Chemical Co., St. Louis, Miss.
Human monocytes were cultured in endotoxin free complete medium as previously described. […]
Cells treated with or without LPG and/or inducers of IL-1β were harvested by gentle scrapping using a rubber policeman and sedimented by centrifugation at 500 g for 5 minutes in a microfuge. Total RNA was extracted using RNA STAT-60 solution (TEL-TEST “B” Inc., Friendswood, Tex.), based on a single step method for RNA isolation (P. Chomczynski and N. Sacchi, “Single-step Method of RNA Isolation by Acid Guanidinium Thiocyanate-phenol-chloroform Extraction,” Anal. Biochem., 162:156-59 (1987), hereby incorporated by reference), and quantitated by spectrophotometry.

NOS mRNA = type: cell-based, human; details: IFN-γ-primed macrophages; LPG 2 μM pretreatment; RT/PCR
IL-1β mRNA [2] = experiment: IL-1β mRNA stability with actinomycin D in THP-1 cells; type: cell-based, human; details: 2 μM LPG simultaneous with LPS 2 μg/ml, actinomycin D after 2 h
Method: THP-1 cells (10^7 cells/condition) were stimulated with 2 μg/ml LPS or 2 μg/ml LPS with 2 μM LPG at time 0 h. Actinomycin D (6 μg/ml) was added to all conditions 2 h later and cells were harvested by gentle scraping for extraction of total RNA at the designated time. The 2 h time point after LPS or LPS plus LPG treatment was used as the respective reference for comparison with residual IL-1β mRNA at the later time points. For each condition and time, the total RNA separated on agarose gel, transferred and immobilized on nylon membrane were probed with ^32P-labeled IL-1β cDNA or GAPDH cDNA.

IL-1β transcription = experiment: In vitro transcription by nuclear run-off assay, IL-1β; type: cell-based, human; details: THP-1 nuclei; 2 μM LPG 2 h, LPS 2 μg/ml 4 h
Method: Nuclei isolation. Procedures for isolating nuclei have been described in Ausubel, F. M. et al., Current Protocols in Molecular Biology 1(4.9):4.9.1-4.9.14 and 1(4.10):4.10.1-4.10.11 (1993), hereby incorporated by reference. THP-1 cells (5×10^7 cells) treated with medium or medium containing 2 μM LPG for 2 h were stimulated or not stimulated with 2 μg/ml LPS for 4 h, at 37° C. in 5% CO2. Cells were harvested by gentle scraping, washed twice with 5 ml ice cold PBS and centrifugation at 350×g for 5 min. After removal of supernatant, cells were gently loosen by 5 sec vortex and 4 ml NP-40 buffer was added by continuous vortex. The NP-40 buffer is composed of 10 mM Tris HCl (pH 7.4), 10 mM NaCl, 3 mM MgCl2, and 0.5% noridet P-40 (NP-40). The cell suspension was further vortexed at half maximal speed for 10 sec and placed on ice for 5 min. Cells were visually inspected to ascertain the separation of nuclei from cytophasmic material. Nuclei were wash once more with 4 ml NP-40 buffer by centrifugation at 350×g, 5 min. The pelleted nuclei were resuspended with 200 μl glycerol buffer and stored in liquid nitrogen until nuclear run-off assay. Glycerol buffer is composed of 50 mM Tris Hcl (pH 8.3), 40% (v/v) glycerol, 5 mM MgCl2, 0.1 mM ethylenediaminetetraacetic acid (EDTA).
In vitro transcription. […]

[3] = test system: HIV p24 antigen, ACH-2 cells; experiment: HIV p24 antigen production in chronically HIV-infected ACH-2 cells; type: cell-based; details: 72 h
Method: LPG, the major surface molecule of Leishmania, has macrophage deactivating functions. Based on the ability of LPG to suppress the generation of ROI and cytokine gene expression, we evaluated the potential that LPG may similarly suppress HIV production. FIGS. 27A-D illustrate the effect of 2 μM LPG pretreatment for 2 h on the induction HIV from chronically HIV-infected monocytic and T cell lines respectively, U1 and ACH-2 cells. LPG treatment of U1 cells for 72 h inhibited basal production of HIV p24 antigen at basal and induction in response to PMA, TNF-α and LPS by 90%, 82%, 60% and 66%, respectively (FIGS. 27A, B). The suppression of HIV p24 antigen production was time-dependent (FIG. 27B). […] The inhibition was also time-dependent. The results are the mean of 2 separate experiments and the SD was less than 10%.

How did the “inhibition of LPS induction of IL-1β mRNA” value (IL-1β mRNA [1]; LPS 2 μg/ml) turn out when lipophosphoglycan [LPG] was run?
The value was “greater than 90%”.

And the “inhibition of S. epidermidis induction of IL-1β mRNA” value (IL-1β mRNA [1])?
The value was “greater than 80%”.

What about the “effect on M. tuberculosis-induction of NOS mRNA” value (NOS mRNA) of the same substance?
The value was “suppressed”.

What about the “enhancement of rate of IL-1β mRNA degradation” value (IL-1β mRNA [2]) of the same substance?
The value was “approximately 30%”.

What about the “inhibition of LPS induced IL-1β mRNA transcription” value (IL-1β transcription) of the same substance?
Its value is “approximately 65%”.

And the “inhibition of HIV p24 antigen production in response to LPS” value ([3]; 2 μM LPG pretreatment 2 h)?
The value was 69%.

What about the “inhibition of HIV p24 antigen production in response to PMA” value ([3]; 2 μM LPG pretreatment 2 h) of the same substance?
The value was 81%.

What about the “inhibition of HIV p24 antigen production in response to TNF-α” value ([3]; 2 μM LPG pretreatment 2 h) of the same substance?
Its value is 88%.

And the “inhibition of basal production of HIV p24 antigen” value ([3]; 2 μM LPG)?
Its value is 62%.

— patent publication US6491922B1, “Methods and compounds for treating autoimmune and vascular disease” (Cornell Research Foundation, Inc., priority 1996, dated 2002)
